Among the data in BindingDB's records for patent US9403804 (Janssen Pharmaceutica, 2016) are IC50 values, retold here.

The target in this assay is Macrophage colony-stimulating factor 1 receptor (Homo sapiens, UniProt P07333). Nature of the assay: Fluorescence Polarization Competition Immunoassay. The settings on record: pH 7.5; 25 °C. Here is the method:
The assay buffer used was 100 mM 4-(2-hydroxyethyl)piperazine 1-ethanesulfonic acid (HEPES), pH 7.5, 1 mM 1,4-dithio-DL-threitol (DTT), 0.01% (v/v) Tween-20. Compounds were diluted in assay buffer containing 4% dimethylsulfoxide (DMSO) just prior to the assay. To each well, 5 μL of compound were added followed by the addition of 3 μL of a mix containing 33 nM c-fms (Johnson & Johnson PRD) and 16.7 mM MgCl2 (Sigma) in assay buffer. The kinase reaction was initiated by adding 2 μL of 5 mM ATP (Sigma) in assay buffer. The final concentrations in the assay were 10 nM c-fms, 1 mM ATP, 5 mM MgCl2, 2% DMSO. Control reactions were ran in each plate: in positive and negative control wells, assay buffer (made 4% in DMSO) was substituted for the compound; in addition, positive control wells received 1.2 μL of 50 mM ethylenediaminetetraaceticacid (EDTA). The plates were incubated at room temperature for 45 min. At the end of the incubation, the reaction was quenched with 1.2 μL of 50 mM EDTA (EDTA was not added to the positive control wells at this point; see above). Following a 5-min incubation, each well received 10 μL of a 1:1:3 mixture of anti-phosphotyrosine antibody, 10×, PTK green tracer, 10× (vortexed), FP dilution buffer, respectively (all from PanVera, cat. # P2837). The plate was covered, incubated for 30 min at room temperature and the fluorescence polarization was read on the Analyst. […]

Sequence of Macrophage colony-stimulating factor 1 receptor (P07333 whole entry): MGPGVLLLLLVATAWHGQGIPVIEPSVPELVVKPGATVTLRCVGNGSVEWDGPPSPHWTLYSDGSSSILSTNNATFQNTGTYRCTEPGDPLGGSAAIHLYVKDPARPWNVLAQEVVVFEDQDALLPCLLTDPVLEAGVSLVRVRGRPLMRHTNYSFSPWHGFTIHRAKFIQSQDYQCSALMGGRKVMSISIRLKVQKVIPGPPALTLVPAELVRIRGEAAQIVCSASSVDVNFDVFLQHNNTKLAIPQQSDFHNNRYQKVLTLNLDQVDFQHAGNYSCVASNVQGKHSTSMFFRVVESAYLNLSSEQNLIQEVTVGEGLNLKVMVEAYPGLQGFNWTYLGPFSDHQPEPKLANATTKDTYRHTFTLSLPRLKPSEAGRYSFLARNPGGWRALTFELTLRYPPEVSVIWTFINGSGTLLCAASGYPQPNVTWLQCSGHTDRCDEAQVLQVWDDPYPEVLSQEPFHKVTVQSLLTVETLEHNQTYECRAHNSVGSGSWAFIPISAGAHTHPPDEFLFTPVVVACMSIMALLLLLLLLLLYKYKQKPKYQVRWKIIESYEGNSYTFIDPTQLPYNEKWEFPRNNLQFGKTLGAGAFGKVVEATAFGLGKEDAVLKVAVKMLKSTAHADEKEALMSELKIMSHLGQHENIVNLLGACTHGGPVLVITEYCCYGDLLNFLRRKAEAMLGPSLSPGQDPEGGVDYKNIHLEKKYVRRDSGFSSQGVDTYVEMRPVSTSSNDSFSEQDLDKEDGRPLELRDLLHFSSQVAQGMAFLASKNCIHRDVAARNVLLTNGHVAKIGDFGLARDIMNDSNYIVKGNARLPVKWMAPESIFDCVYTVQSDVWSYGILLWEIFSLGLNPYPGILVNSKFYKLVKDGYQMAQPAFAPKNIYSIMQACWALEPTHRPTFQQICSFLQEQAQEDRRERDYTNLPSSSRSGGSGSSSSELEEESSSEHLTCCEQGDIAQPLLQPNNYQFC

Usually IC50 stands for the point on the concentration scale where inhibition reaches its midpoint. `CC1(C)CC=C(c2cc([C@]3(O)CC[C@@H](N4CCOCC4)CC3)ccc2NC(=O)c2nc(C#N)c[nH]2)CC1` [US9403804, 44]: the IC50 is 0.72 nM.

In turn, `CC1(C)CC=C(c2cc([C@]3(O)CC[C@H](N4CCOCC4)CC3)ccc2NC(=O)c2nc(C#N)c[nH]2)CC1` [US9403804, 45] gave an IC50 of 3.4 nM.
